The test system of series [1] is human umbilical vein endothelial cells (HUVEC). As to the kind of experiment: Impedimetric measurement (xCELLigence SP), delta slope, HUVEC. Particulars: for delta slope (DS), short-term / delta slope (DS), long-term: HUVEC, three parallels; for delta slope (DS), short-term: 0–2 h; for delta slope (DS), long-term: 0–72 h; for cytotoxic effect on HUVEC, result in words: long-term (0–72 h), 10^−8–10^−6 mol/L, impedimetry, one-way ANOVA. From the text:
(§1) The main objective of the study reported here was to evaluate the in vitro cardiotoxic effects (as undesired side effects) of […] GnRH-III-based conjugates containing doxorubicin, daunorubicin and methotrexate on two essential target cells of cardiovascular diseases: vascular endothelial cells and cardiomyocytes. The rate of cytotoxicity (antitumor effect) vs cardiotoxicity (toxic effects on cardiomyocytes and vascular endothelium) is an important factor for efficient drug development for targeted tumor therapy with minimized side effects. The technique used in this work – impedimetry – is a dedicated one for real-time monitoring of cells to distinguish short-term (0–2 hours) and long-term (0–72 hours) effects elicited by the drug or carrier–drug conjugates. The basic theory of impedimetry is that proliferation/viability of cells is well detectable by monitoring of the electric impedance (Z) in an AC environment, due to the electric insulator character of intact surface membranes composed of the phospholipid bilayer. […] While cell physiological responses of short-term exposures result in characteristic changes of cell morphology (e.g., spreading), long-term effects characteristically influence in particular the proliferation of cells, and therefore the cytotoxic effects. The presented dimensionless values of delta slope (DS) measure the difference between the slope of the curve corresponding to the treatment and that of the control curve in impedimetric recordings, the negative signs refer to the relative values to the identical control.
(§2) Experimental part – Cellular samples
(§3) In the present study, GnRH conjugates containing anti-tumour drugs (e.g., daunorubicin, doxorubicin) were investigated in order to evaluate whether the conjugates exert a decrease cardiotoxic effect compared to that of the free drugs. The cardiac myocytes and the vascular endothelium cells are the most frequently detected target cells of antitumor compounds and they are employed in our study. Human umbilical vein endothelial cells (HUVEC; Promocell, Biomedica, Wien, Austria) were cultured in Endothelial Cell Growth Medium with Endothelial Cell Growth Supplement Mix (Promocell, Biomedica, Wien, Austria) and 100 µg/mL penicillin/streptomycin. Primary human cardiac myocytes (HCM; Promocell, Biomedica, Wien, Austria) were cultured in Myocyte Growth Medium (Promocell, Biomedica, Wien, Austria).
(§4) Impedimetric measurements
(§5) The xCELLigence SP system was used for impedimetric measurements. The bottom of the wells of a 96-well E-plate is installed with a golden electrode array that constitutes the adhesion surface. Adhering cells – acting as insulators – change the electric impedance measured on the electrodes. The measured impedance change is in direct correlation with the number of adhering cells and the extent of adhesion. The results of impedance change are given in the form of Cell Index (CI) calculated by the xCELLigence system according to the […]
(§6) where Zt is the measured impedance in a time point, Zb is the background impedance and F is an inbuilt factor (F = 15 at 10 kHz) depending on the frequency of the alternating current. The measurements took place in an incubator holding a 37 °C temperature and 5% carbon-dioxide […]
(§7) The experiments started with a measurement of baseline impedance for 1 hour. After that, the cells (10^4 cells/well) were added to the wells and allowed to adhere to the electrodes. When the adhering cells reached a balanced state in the wells, signified by the impedance curves […]
(§8) free drugs at 10−12 – 10−6 M and the conjugates at 10−8 – 10−6 M final concentrations were […]
(§9) added to the wells. The changes in impedance were measured for at least 72 hours. For each measurement three parallels were measured.
(§10) The evaluation of responses followed the previously described strategy: acute effects of compounds were evaluated as a characteristic morphology of the curves in the 0–2 hours

Series [2] has as its system primary human cardiac myocytes (HCM). To be noted: for delta slope (DS), short-term / delta slope (DS), long-term: HCM, three parallels; for delta slope (DS), short-term: 0–2 h; for delta slope (DS), long-term: 0–72 h; for cytotoxic effect on HCM, result in words: long-term (0–72 h), 10^−8–10^−6 mol/L (free drugs 10^−12–10^−6 mol/L), impedimetry, one-way ANOVA.
Description: as §1, §2, §3, §4, §5, §6, §7, §8, §9, §10

Series [3] has as its system HT-29 human colon adenocarcinoma cells. Particulars: MTT assay; cited from earlier work. From the text: (§11) Table 1 Comparative study of cytotoxic effects and cardiotoxicity elicited by GnRH-based antitumor compounds (1–15) and reference substances (AN-152, Dox, Dau, Mtx). IC50 values show antitumor cytotoxic characteristics of the conjugates in human breast cancer (MCF-7), human colorectal adenocarcinoma (HT-29) and human acute monocytic leukemia (MM6) derived cell lines as representative tumor cells.

Series [4] has as its system MCF-7 human breast adenocarcinoma cells. To be noted: MTT assay; cited from earlier work.
Description: as §11

The subject of series [5] is human acute monocytic leukemia (MonoMac6) cells. To be noted: cited from earlier work.
Description: as §11

Where [6] appears, read: grade +++/++/+/0, key not given, summary of impedimetric cytotoxicity.

Read-outs that look alike come from different tables or passages of the source.

By IC50 is commonly meant the concentration at which inhibition is half-maximal. For GnRH-III(Dau=Aoa) [conjugate 4], the “delta slope (DS), short-term” value in series [1] (Table S3a, 10^-6 mol/L) is reported as -0.003; in series [1] (Table S3a, 10^-7 mol/L), -0.003; in series [1] (Table S3a, 10^-8 mol/L) it was 0.001; in series [2] (Table S3b, 10^-6 mol/L) it was 0.001; in series [2] (Table S3b, 10^-7 mol/L), -0.001; in series [2] (Table S3b, 10^-8 mol/L) it was -0.002. Moreover, the “delta slope (DS), long-term” value in series [1] (Table S3a, 10^-6 mol/L) is recorded as -0.001; in series [1] (Table S3a, 10^-7 mol/L), -0.001; in series [1] (Table S3a, 10^-8 mol/L), -0.001; in series [2] (Table S3b, 10^-6 mol/L) it was -0.001; in series [2] (Table S3b, 10^-7 mol/L) it was -0.001; in series [2] (Table S3b, 10^-8 mol/L), -0.001. For the same compound, the “Cardiotoxicity, HUVEC” value in series [1] (setting [6]) is given as 0. Moreover, in series [1], the “cytotoxic effect on HUVEC, result in words” value is on record as “completely lost the cytotoxic effect”. In series [2] (setting [6]), the “Cardiotoxicity, HCM” value is 0. In series [2], the “cytotoxic effect on HCM, result in words” value was “completely lost their cytotoxic effect”. Moreover, the concentration for half-maximal inhibition (IC50) is 27.8 ± 4.2 µM in series [3], 6.5 ± 1.8 µM in series [4] and greater than 1 µM in series [5].
For the compound GnRH-III(Dau=Aoa-YRRL) [conjugate 8], the “delta slope (DS), short-term” value in series [1] (Table S4a, 10^-6 mol/L) is listed as 0.003; in series [1] (Table S4a, 10^-7 mol/L), -0.004; in series [1] (Table S4a, 10^-8 mol/L) it was -0.010; in series [2] (Table S4b, 10^-6 mol/L), -0.002; in series [2] (Table S4b, 10^-7 mol/L), -0.001; in series [2] (Table S4b, 10^-8 mol/L) it was -0.003. Also, the “delta slope (DS), long-term” value in series [1] (Table S4a, 10^-6 mol/L) is given as −0.018; in series [1] (Table S4a, 10^-7 mol/L), -0.002; in series [1] (Table S4a, 10^-8 mol/L), -0.007; in series [2] (Table S4b, 10^-6 mol/L) it was −0.004; in series [2] (Table S4b, 10^-7 mol/L), -0.002; in series [2] (Table S4b, 10^-8 mol/L), -0.001. For the same compound, the IC50 in series [3] was 28.6 ± 5.5 µM; in series [4], 1.8 ± 0.5 µM; in series [5], greater than 1 µM.
Consider “[^4Lys(Mtx)]-GnRH-III(Dau=Aoa) [conjugate 15]”, for which the “delta slope (DS), short-term” value is recorded as 0.006 in series [1] (Table S5a, 10^-6 mol/L); -0.002 in series [1] (Table S5a, 10^-7 mol/L); 0.006 in series [1] (Table S5a, 10^-8 mol/L); -0.001 in series [2] (Table S5b, 10^-6 mol/L); -0.002 in series [2] (Table S5b, 10^-7 mol/L); -0.003 in series [2] (Table S5b, 10^-8 mol/L). For the same compound, the “delta slope (DS), long-term” value is on record as -0.001 in series [1] (Table S5a, 10^-6 mol/L); -0.001 in series [1] (Table S5a, 10^-7 mol/L); 0.003 in series [1] (Table S5a, 10^-8 mol/L); -0.001 in series [2] (Table S5b, 10^-6 mol/L); 0.001 in series [2] (Table S5b, 10^-7 mol/L); -0.001 in series [2] (Table S5b, 10^-8 mol/L). The “Cardiotoxicity, HUVEC” value in series [1] (setting [6]) is recorded as 0. In series [1], the “cytotoxic effect on HUVEC, result in words” value is listed as “no significant cytotoxic effect”. Further, the “Cardiotoxicity, HCM” value in series [2] (setting [6]) turned out to be 0. Besides, in series [2], the “cytotoxic effect on HCM, result in words” value was “none of the two investigated mixed drug–GnRH-III conjugates (13 and 15) exerted any significant cytotoxic effect”. For the same compound, the IC50 in series [3] was 3.6 ± 1.5 µM; in series [4] it was 5.8 ± 1.1 µM; in series [5], greater than 1 µM.
On to `COc1cccc2c1C(=O)c1c(O)c3c(c(O)c1C2=O)C[C@@](O)(C(=O)CO)C[C@@H]3O[C@H]1C[C@H](N)[C@H](O)[C@H](C)O1` [doxorubicin], for which, in series [1], the “Cardiotoxicity, HUVEC” value is recorded as “+++”. The “delta slope (DS), short-term” value is 0.063 in series [1] (Table S1a, 10^-6 mol/L); 0.037 in series [1] (Table S1a, 10^-7 mol/L); -0.008 in series [1] (Table S1a, 10^-8 mol/L); 0.003 in series [1] (Table S1a, 10^-9 mol/L); -0.004 in series [1] (Table S1a, 10^-10 mol/L); 0.021 in series [1] (Table S1a, 10^-11 mol/L). The “delta slope (DS), short-term” value in series [1] (Table S1a, 10^-12 mol/L) came out at 0.008; in series [1] (Table S2a, 10^-6 mol/L), 0.012; in series [1] (Table S2a, 10^-7 mol/L), 0.032; in series [1] (Table S2a, 10^-8 mol/L), 0.002; in series [2] (Table S1b, 10^-6 mol/L), 0.019; in series [2] (Table S1b, 10^-7 mol/L), 0.003. The “delta slope (DS), short-term” value in series [2] (Table S1b, 10^-8 mol/L) is 0.001; in series [2] (Table S1b, 10^-9 mol/L), -0.001; in series [2] (Table S1b, 10^-10 mol/L), 0.002; in series [2] (Table S1b, 10^-11 mol/L), 0.002; in series [2] (Table S1b, 10^-12 mol/L) it was 0.001; in series [2] (Table S2b, 10^-6 mol/L) it was 0.057. The “delta slope (DS), short-term” value is -0.001 in series [2] (Table S2b, 10^-7 mol/L) and 0.001 in series [2] (Table S2b, 10^-8 mol/L). For the same compound, in series [2], the “Cardiotoxicity, HCM” value is “+++”. Besides, the IC50 in series [3] is 0.1 µM; in series [4] it was 0.1 µM; in series [5], 0.007 ± 0.0001 µM.

(Values after article PMC6037002, “Drug targeting to decrease cardiotoxicity – determination of the cytotoxic effect of GnRH-based conjugates containing doxorubicin, daunorubicin and methotrexate on human cardiomyocytes and endothelial cells” (Beilstein Journal of Organic Chemistry, 2018).)
